Test results as given in US9765092B2, “Tricyclic piperidine compounds” (ACTELION PHARMACEUTICALS LTD, priority 2013, dated 2017).

Biological target: human TPH1 (Homo sapiens (Human), UniProt P17752)
Assay: Biochemical in vitro assay using fluorescence readout (TPH1 inhibition)
Text: Biochemical In Vitro Assay Using Fluorescence Readout
To generate the enzyme, full length human TPH1 is cloned into the plasmid pET20b(+) (Novagen) and expressed in E. coli. The bacterial cells are ruptured by sonication on ice and the lysate is cleared by centrifugation. The resulting protein in the pellet is re-extracted and TPH1 is purified from the obtained lysate by affinity chromatography using a pterin cosubstrate analog immobilized to the resin of the column. The protein is further purified by size exclusion chromatography to remove protein aggregates. The activity of TPH1 is determined by using a fluorescence assay. The enzyme activity assay is carried out at 15° C. with atmosphere oxygen for the duration of 60 minutes in a volume of 64 μl. The reaction is carried out in a 0.1 M Tris-HCl buffer, adjusted to pH 7.6, containing 1 mM DTT, 0.2 mg/mL catalase, 100 μM (±)-6-methyl-5,6,7,8-tetrahydropterine dihydrochloride, 40 μM L-tryptophan, and 40-80 nM of TPH1. The reaction is started by bringing together L-tryptophan with all the other reaction substituents and stopped by quenching with perchloric acid (HClO4). The amount of 5-hydroxy-L-tryptophan produced during the enzymatic reaction is determined by fluorescence readout. Fluorescence, as determined at 540 nm when excited at 300 nm wavelength, increases proportionally to the 5-hydroxy-L-tryptophan formed. Compounds are prepared as 10 mM stock solution in DMSO, then diluted in 384-well plates using DMSO followed by a transfer of the dilutions into the assay plate. Fluorescence is measured for each well and the fluorescence at 540 nm wavelength is compared to the fluorescence of the vehicle in place of compound. Inhibitory activities of example compounds with respect to the TPH1 protein are determined by calculating the IC50 value (the concentration of compound needed to inhibit 50% of the enzyme activity). The calculated IC50 values may fluctuate depending on the daily biochemical assay performance. Fluctuations of this kind are known to those skilled in the art.

[1] = human TPH1, fluorescence readout

human TPH1, sequence (P17752 whole entry): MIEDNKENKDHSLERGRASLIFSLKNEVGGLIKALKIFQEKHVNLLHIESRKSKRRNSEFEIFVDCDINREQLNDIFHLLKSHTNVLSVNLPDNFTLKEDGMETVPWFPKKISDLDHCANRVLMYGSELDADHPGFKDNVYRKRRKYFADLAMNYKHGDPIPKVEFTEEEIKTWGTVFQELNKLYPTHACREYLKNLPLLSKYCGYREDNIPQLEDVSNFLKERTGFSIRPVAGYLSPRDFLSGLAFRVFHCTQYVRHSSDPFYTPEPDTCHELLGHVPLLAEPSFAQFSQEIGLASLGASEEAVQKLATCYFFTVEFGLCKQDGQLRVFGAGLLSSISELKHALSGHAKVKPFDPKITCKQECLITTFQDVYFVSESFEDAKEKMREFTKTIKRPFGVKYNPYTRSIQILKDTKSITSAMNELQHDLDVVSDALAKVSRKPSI

For `Cc1nn2c3c(nc2s1)CCN(C(=O)COc1ccc(N(C)CC(F)(F)F)nc1Cl)C3c1ccc(Cl)cc1F` (stereo not drawn) [Example 1.4.38, 1-(5-(4-chloro-2-fluorophenyl)-2-methyl-7,8-dihydro-[1,3,4]thiadiazolo[2′,3′:2,3]imidazo[4,5-c]pyridin-6(5H)-yl)-2-((2-chloro-6-(methyl(2,2,2-trifluoroethyl)amino)pyridin-3-yl)oxy)ethanone], the IC50 [1] was 3 nM.

With `Cc1nn2c3c(nc2s1)CCN(C(=O)COc1ccc(NS(C)(=O)=O)nc1Cl)C3c1ccc(Cl)cc1F` (stereo not drawn) [Example 1.4.39, N-(6-chloro-5-(2-(5-(4-chloro-2-fluorophenyl)-2-methyl-7,8-dihydro-[1,3,4]thiadiazolo[2′,3′:2,3]imidazo[4,5-c]pyridin-6(5H)-yl)-2-oxoethoxy)pyridin-2-yl)methanesulfonamide] the IC50 [1] was 5 nM.

In the case of `Cc1nn2c3c(nc2s1)CCN(C(=O)COc1cnc(N(C)C)nc1Cl)C3c1ccc(Cl)cc1F` (stereo not drawn) [Example 1.4.40, 2-((4-chloro-2-(dimethylamino)pyrimidin-5-yl)oxy)-1-(5-(4-chloro-2-fluorophenyl)-2-methyl-7,8-dihydro-[1,3,4]thiadiazolo [2′,3′:2,3]imidazo[4,5-c]pyridin-6(5H)-yl)ethanone], the IC50 [1] is reported as 4 nM.

Compound `CONC(=O)c1ccc(OCC(=O)N2CCc3nc4sc(C)nn4c3C2c2ccc(Cl)cc2F)c(Cl)n1` (stereo not drawn) [Example 1.4.41, 6-Chloro-5-(2-(5-(4-chloro-2-fluorophenyl)-2-methyl-7,8-dihydro-[1,3,4]thiadiazolo[2′,3′:2,3]imidazo[4,5-c]pyridin-6(5H)-yl)-2-oxoethoxy)-N-methoxypicolinamide] has an IC50 (full length human TPH1, 40 μM L-tryptophan, 15° C., 60 minutes, fluorescence at 540 nm, mean if determined several times) of 6 nM.

`Cc1nn2c3c(nc2s1)CCN(C(=O)COc1ccc(C(=O)N(C)C)nc1Cl)C3c1ccc(Cl)cc1F` (stereo not drawn) [Example 1.4.42, 6-chloro-5-(2-(5-(4-chloro-2-fluorophenyl)-2-methyl-7,8-dihydro-[1,3,4]thiadiazolo[2′,3′:2,3]imidazo[4,5-c]pyridin-6(5H)-yl)-2-oxoethoxy)-N,N-dimethylpicolinamide] showed an IC50 [1] of 18 nM.

Work on `COC1(C)CN(c2ccc(OCC(=O)N3CCc4nc5sc(C)nn5c4C3c3ccc(Cl)cc3F)c(Cl)n2)C1` (stereo not drawn) [Example 1.4.43, 1-(5-(4-chloro-2-fluorophenyl)-2-methyl-7,8-dihydro-[1,3,4]thiadiazolo[2′,3′:2,3]imidazo[4,5-c]pyridin-6(5H)-yl)-2-((2-chloro-6-(3-methoxy-3-methylazetidin-1-yl)pyridin-3-yl)oxy)ethanone] yielded an IC50 [1] of 35 nM.

Compound `Cc1nn2c3c(nc2s1)CCN(C(=O)COc1ccc(C2(N(C)C)CC2)nc1Cl)C3c1ccc(Cl)cc1F` (stereo not drawn) [Example 1.4.44, 1-(5-(4-chloro-2-fluorophenyl)-2-methyl-7,8-dihydro-[1,3,4]thiadiazolo[2′,3′:2,3]imidazo[4,5-c]pyridin-6(5H)-yl)-2-((2-chloro-6-(1-(dimethylamino)cyclopropyl)pyridin-3-yl)oxy)ethanone] has an IC50 [1] of 51 nM.

With `Cc1ncc(OCC(=O)N2CCc3nc4sc(C)nn4c3C2c2ccc(Cl)cc2F)c(C)n1` (stereo not drawn) [Example 1.4.45, 1-(5-(4-chloro-2-fluorophenyl)-2-methyl-7,8-dihydro-[1,3,4]thiadiazolo[2′,3′:2,3]imidazo[4,5-c]pyridin-6(5H)-yl)-2-((2,4-dimethylpyrimidin-5-yl)oxy)ethanone] the IC50 [1] was 98 nM.

With `Cc1nn2c3c(nc2s1)CCN(C(=O)COc1ccc(C(=O)N(C)C2CC2)nc1Cl)C3c1ccc(Cl)cc1F` (stereo not drawn) [Example 1.4.46, 6-chloro-5-(2-(5-(4-chloro-2-fluorophenyl)-2-methyl-7,8-dihydro-[1,3,4]thiadiazolo[2′,3′:2,3]imidazo[4,5-c]pyridin-6(5H)-yl)-2-oxoethoxy)-N-cyclopropyl-N-methylpicolinamide] the IC50 [1] was 16 nM.

With `Cc1nn2c3c(nc2s1)CCN(C(=O)COc1ccc(-c2ncco2)nc1Cl)C3c1ccc(Cl)cc1F` (stereo not drawn) [Example 1.4.47, 1-(5-(4-chloro-2-fluorophenyl)-2-methyl-7,8-dihydro-[1,3,4]thiadiazolo[2′,3′:2,3]imidazo[4,5-c]pyridin-6(5H)-yl)-2-((2-chloro-6-(oxazol-2-yl)pyridin-3-yl)oxy)etha-none] the IC50 [1] was 10 nM.

In the case of `Cc1nn2c3c(nc2s1)CCN(C(=O)COc1ccc(N(C)S(C)(=O)=O)nc1Cl)C3c1ccc(Cl)cc1F` (stereo not drawn) [Example 1.4.48, N-(6-chloro-5-(2-(5-(4-chloro-2-fluorophenyl)-2-methyl-7,8-dihydro-[1,3,4]thiadiazolo[2′,3′:2,3]imidazo[4,5-c]pyridin-6(5H)-yl)-2-oxoethoxy)pyridin-2-yl)-N-methylmethanesulfonamide], the IC50 [1] is reported as 10 nM.

Compound `Cc1nn2c3c(nc2s1)CCN(C(=O)COc1ccc(N2CCCS2(=O)=O)nc1Cl)C3c1ccc(Cl)cc1F` (stereo not drawn) [Example 1.4.49, 1-(5-(4-chloro-2-fluorophenyl)-2-methyl-7,8-dihydro-[1,3,4]thiadiazolo[2′,3′:2,3]imidazo[4,5-c]pyridin-6(5H)-yl)-2-((2-chloro-6-(1,1-dioxidoisothiazolidin-2-yl)pyridin-3-yl)oxy)ethanone] has an IC50 [1] of 9 nM.

With `Cc1nn2c3c(nc2s1)CCN(C(=O)COc1ccc(NS(=O)(=O)N(C)C)nc1Cl)C3c1ccc(Cl)cc1F` (stereo not drawn) [Example 1.4.50, N-(6-chloro-5-(2-(5-(4-chloro-2-fluorophenyl)-2-methyl-7,8-dihydro-[1,3,4]thiadiazolo[2′,3′:2,3]imidazo[4,5-c]pyridin-6(5H)-yl)-2-oxoethoxy)pyridin-2-yl)-N′,N′-dimethyl-sulfamide] the IC50 [1] was 78 nM.

With `CCc1nc(NS(C)(=O)=O)ccc1OCC(=O)N1CCc2nc3sc(C)nn3c2C1c1ccc(Cl)cc1F` (stereo not drawn) [Example 1.4.51, N-(5-(2-(5-(4-chloro-2-fluorophenyl)-2-methyl-7,8-dihydro-[1,3,4]thiadiazolo[2′,3′:2,3]imidazo[4,5-c]-pyridin-6(5H)-yl)-2-oxoethoxy)-6-ethylpyridin-2-yl)methanesulfonamide] the IC50 [1] was 12 nM.

`CNS(=O)(=O)Nc1ccc(OCC(=O)N2CCc3nc4sc(C)nn4c3C2c2ccc(Cl)cc2F)c(Cl)n1` (stereo not drawn) [Example 1.4.52, N-(6-chloro-5-(2-(5-(4-chloro-2-fluorophenyl)-2-methyl-7,8-dihydro-[1,3,4]thiadiazolo[2′,3′:2,3]imidazo[4,5-c]pyridin-6(5H)-yl)-2-oxoethoxy)pyridin-2-yl)-N′-methyl-sulfamide] gave an IC50 [1] of 38 nM.

With `Cc1nn2c3c(nc2s1)CCN(C(=O)C1(Oc2ccc(NS(C)(=O)=O)nc2Cl)CC1)C3c1ccc(Cl)cc1F` (stereo not drawn) [Example 1.4.54, N-(6-chloro-5-(1-(5-(4-chloro-2-fluorophenyl)-2-methyl-5,6,7,8-tetrahydro-[1,3,4]thiadiazolo[2′,3′:2,3]imidazo[4,5-c]pyridine-6-carbonyl)cyclopropoxy)pyridin-2-yl)methanesulfonamide] the IC50 [1] was 37 nM.

Compound `Cc1nn2c3c(nc2s1)CCN(C(=O)COc1ccc(C(=O)NC2CC2)nc1C1CC1)C3c1ccc(Cl)cc1F` (stereo not drawn) [Example 1.4.55, 5-(2-(5-(4-chloro-2-fluorophenyl)-2-methyl-7,8-dihydro-[1,3,4]thiadiazolo[2′,3′:2,3]imidazo[4,5-c]pyridin-6(5H)-yl)-2-oxoethoxy)-N,6-dicyclopropylpicolinamide] has an IC50 [1] of 9 nM.

Compound `Cc1nn2c3c(nc2s1)CCN(C(=O)C(C)(C)Oc1ccc(NS(C)(=O)=O)nc1Cl)C3c1ccc(Cl)cc1F` (stereo not drawn) [Example 1.4.56, N-(6-chloro-5-((1-(5-(4-chloro-2-fluorophenyl)-2-methyl-7,8-dihydro-[1,3,4]thiadiazolo[2′,3′:2,3]imidazo[4,5-c]pyridin-6(5H)-yl)-2-methyl-1-oxopropan-2-yl)oxy)pyridin-2-yl)methanesulfonamide] has an IC50 [1] of 567 nM.

`Cc1nn2c3c(nc2s1)CCN(C(=O)C1(Oc2ccc(C(=O)N(C)C)nc2Cl)CC1)C3c1ccc(Cl)cc1F` (stereo not drawn) [Example 1.4.57, 6-chloro-5-(1-(5-(4-chloro-2-fluorophenyl)-2-methyl-5,6,7,8-tetrahydro-[1,3,4]thiadiazolo[2′,3′:2,3]imidazo[4,5-c]pyridine-6-carbonyl)cyclopropoxy)-N,N-dimethylpicolinamide] gave an IC50 [1] of 39 nM.

Compound `Cc1nn2c3c(nc2s1)CCN(C(=O)C(C)(C)Oc1ccc(C(=O)N(C)C)nc1Cl)C3c1ccc(Cl)cc1F` (stereo not drawn) [Example 1.4.58, 6-chloro-5-((1-(5-(4-chloro-2-fluorophenyl)-2-methyl-7,8-dihydro-[1,3,4]thiadiazolo[2′,3′:2,3]imidazo[4,5-c]pyridin-6(5H)-yl)-2-methyl-1-oxopropan-2-yl)oxy)-N,N-dimethylpicolinamide] has an IC50 [1] of 55 nM.

`Cc1nn2c3c(nc2s1)CCN(C(=O)COc1ccc(S(C)(=O)=O)nc1Cl)C3c1ccc(Cl)cc1F` (stereo not drawn) [Example 1.4.59, 1-(5-(4-chloro-2-fluorophenyl)-2-methyl-7,8-dihydro-[1,3,4]thiadiazolo[2′,3′:2,3]imidazo[4,5-c]pyridin-6(5H)-yl)-2-((2-chloro-6-(methylsulfonyl)pyridin-3-yl)oxy)ethan-1-one] gave an IC50 [1] of 27 nM.
